Experimental data published in the kinase profiling compilation of Christmann-Franck et al. (2016).

How the values were obtained:
Test in all cases: KINOMEscan competition binding
Settings in all cases: compound 1.0 µM
[1] = system: ABL1 (human), P00519 [E255K]
AKT2 (human) = AKT2 (human) (UniProt P31751)
ALK (human) = ALK (human) (UniProt Q9UM73)
AXL (human) = AXL (human) (UniProt P30530)
BLK (human) = BLK (human) (UniProt P51451)
BMPR1B (human) = BMPR1B (human) (UniProt O00238)
CDK14 (human) = CDK14 (human) (UniProt O94921)
CDK9 (human) = CDK9 (human) (UniProt P50750)
CHEK1 (human) = CHEK1 (human) (UniProt O14757)
CLK3 (human) = CLK3 (human) (UniProt P49761)
CSNK1G1 (human) = CSNK1G1 (human) (UniProt Q9HCP0)
EGFR (human) = EGFR (human) (UniProt P00533)
[2] = system: EGFR (human), P00533 [L858R]
[3] = system: EGFR (human), P00533 [P753S; 747-752 del]
EPHA5 (human) = EPHA5 (human) (UniProt P54756)
EPHB3 (human) = EPHB3 (human) (UniProt P54753)
EPHB6 (human) = EPHB6 (human) (UniProt O15197)
FES (human) = FES (human) (UniProt P07332)
GAK (human) = GAK (human) (UniProt O14976)
IGF1R (human) = IGF1R (human) (UniProt P08069)
KDR (human) = KDR (human) (UniProt P35968)
KIT (human) = KIT (human) (UniProt P10721)
LATS2 (human) = LATS2 (human) (UniProt Q9NRM7)
MAPK4 (human) = MAPK4 (human) (UniProt P31152)
[4] = system: MET (human), P08581 [Y1235D]
MUSK (human) = MUSK (human) (UniProt O15146)
NEK1 (human) = NEK1 (human) (UniProt Q96PY6)
PLK2 (human) = PLK2 (human) (UniProt Q9NYY3)
PLK3 (human) = PLK3 (human) (UniProt Q9H4B4)
[5] = system: RET (human), P07949 [M918T]
RIOK3 (human) = RIOK3 (human) (UniProt O14730)
ROS1 (human) = ROS1 (human) (UniProt P08922)
STK10 (human) = STK10 (human) (UniProt O94804)
STK32C (human) = STK32C (human) (UniProt Q86UX6)
STK36 (human) = STK36 (human) (UniProt Q9NRP7)
TEK (human) = TEK (human) (UniProt Q02763)
TTK (human) = TTK (human) (UniProt P33981)
ULK1 (human) = ULK1 (human) (UniProt O75385)
ULK2 (human) = ULK2 (human) (UniProt Q8IYT8)
YSK4 (human) = YSK4 (human) (UniProt Q56UN5)
ZAP70 (human) = ZAP70 (human) (UniProt P43403)

Chain of STK36 (human) (Q9NRP7 whole entry, looked up): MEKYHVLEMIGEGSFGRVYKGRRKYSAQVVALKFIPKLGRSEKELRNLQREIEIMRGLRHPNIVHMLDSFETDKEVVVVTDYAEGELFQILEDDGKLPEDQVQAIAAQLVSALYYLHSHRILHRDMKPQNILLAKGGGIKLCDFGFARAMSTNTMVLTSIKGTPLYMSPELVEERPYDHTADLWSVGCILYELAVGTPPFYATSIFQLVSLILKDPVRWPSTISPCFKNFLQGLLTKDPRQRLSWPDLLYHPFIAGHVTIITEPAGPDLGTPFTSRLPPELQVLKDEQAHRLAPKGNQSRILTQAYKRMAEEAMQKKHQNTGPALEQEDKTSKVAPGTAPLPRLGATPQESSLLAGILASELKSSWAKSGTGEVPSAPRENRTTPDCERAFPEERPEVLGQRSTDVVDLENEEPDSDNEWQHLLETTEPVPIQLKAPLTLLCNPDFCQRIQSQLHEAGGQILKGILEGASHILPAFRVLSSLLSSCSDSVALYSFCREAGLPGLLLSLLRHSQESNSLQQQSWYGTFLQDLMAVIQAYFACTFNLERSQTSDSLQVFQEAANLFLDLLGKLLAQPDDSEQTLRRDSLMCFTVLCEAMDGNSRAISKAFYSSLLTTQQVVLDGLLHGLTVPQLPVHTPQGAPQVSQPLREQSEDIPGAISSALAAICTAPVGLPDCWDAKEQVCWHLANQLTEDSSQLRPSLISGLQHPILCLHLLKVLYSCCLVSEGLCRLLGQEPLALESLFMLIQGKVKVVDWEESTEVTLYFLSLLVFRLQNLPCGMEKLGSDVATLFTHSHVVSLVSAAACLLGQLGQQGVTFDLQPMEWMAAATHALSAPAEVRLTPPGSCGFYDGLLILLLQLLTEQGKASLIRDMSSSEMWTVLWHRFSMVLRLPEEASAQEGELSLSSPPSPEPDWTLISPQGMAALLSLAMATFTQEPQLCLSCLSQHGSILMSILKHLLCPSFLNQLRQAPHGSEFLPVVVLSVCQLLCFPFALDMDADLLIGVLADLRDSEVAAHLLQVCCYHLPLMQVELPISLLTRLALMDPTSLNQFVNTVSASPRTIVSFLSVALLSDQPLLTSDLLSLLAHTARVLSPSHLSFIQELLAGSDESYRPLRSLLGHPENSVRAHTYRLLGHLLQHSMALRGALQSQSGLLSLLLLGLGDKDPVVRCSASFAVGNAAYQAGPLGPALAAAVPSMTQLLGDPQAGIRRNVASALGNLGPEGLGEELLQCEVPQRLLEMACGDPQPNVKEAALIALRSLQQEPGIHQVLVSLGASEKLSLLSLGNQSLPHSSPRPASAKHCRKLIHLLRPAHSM
Chain of LATS2 (human) (Q9NRM7 whole entry, looked up): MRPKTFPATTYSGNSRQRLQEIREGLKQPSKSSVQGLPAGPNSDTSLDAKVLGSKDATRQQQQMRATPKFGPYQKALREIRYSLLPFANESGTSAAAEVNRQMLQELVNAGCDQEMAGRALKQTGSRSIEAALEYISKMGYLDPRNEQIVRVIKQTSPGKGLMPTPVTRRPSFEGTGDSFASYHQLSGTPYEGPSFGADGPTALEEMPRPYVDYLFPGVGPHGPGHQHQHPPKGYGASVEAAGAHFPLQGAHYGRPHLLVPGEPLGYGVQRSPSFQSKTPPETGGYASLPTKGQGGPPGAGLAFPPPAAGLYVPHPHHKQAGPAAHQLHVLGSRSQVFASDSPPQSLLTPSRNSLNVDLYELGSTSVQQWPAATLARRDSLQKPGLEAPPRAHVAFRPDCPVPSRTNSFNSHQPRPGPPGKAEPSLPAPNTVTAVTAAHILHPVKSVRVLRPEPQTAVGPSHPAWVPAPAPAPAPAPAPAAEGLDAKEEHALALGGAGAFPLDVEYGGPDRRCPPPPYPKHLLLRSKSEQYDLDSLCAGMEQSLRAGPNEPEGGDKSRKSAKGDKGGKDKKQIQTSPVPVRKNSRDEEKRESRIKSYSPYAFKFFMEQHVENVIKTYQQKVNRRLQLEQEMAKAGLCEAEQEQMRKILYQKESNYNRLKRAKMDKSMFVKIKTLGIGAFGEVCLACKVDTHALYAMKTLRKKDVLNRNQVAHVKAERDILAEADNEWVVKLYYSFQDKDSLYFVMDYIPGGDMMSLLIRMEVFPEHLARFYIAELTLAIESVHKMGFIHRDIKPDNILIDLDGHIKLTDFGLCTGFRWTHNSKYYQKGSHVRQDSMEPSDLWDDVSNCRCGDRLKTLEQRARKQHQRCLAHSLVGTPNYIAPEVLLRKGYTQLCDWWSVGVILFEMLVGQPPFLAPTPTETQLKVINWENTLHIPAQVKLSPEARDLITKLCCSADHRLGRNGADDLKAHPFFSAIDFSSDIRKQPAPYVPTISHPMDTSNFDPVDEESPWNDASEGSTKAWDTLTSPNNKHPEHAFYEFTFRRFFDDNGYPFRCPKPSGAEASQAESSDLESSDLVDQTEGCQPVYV
Chain of CLK3 (human) (P49761 whole entry, looked up): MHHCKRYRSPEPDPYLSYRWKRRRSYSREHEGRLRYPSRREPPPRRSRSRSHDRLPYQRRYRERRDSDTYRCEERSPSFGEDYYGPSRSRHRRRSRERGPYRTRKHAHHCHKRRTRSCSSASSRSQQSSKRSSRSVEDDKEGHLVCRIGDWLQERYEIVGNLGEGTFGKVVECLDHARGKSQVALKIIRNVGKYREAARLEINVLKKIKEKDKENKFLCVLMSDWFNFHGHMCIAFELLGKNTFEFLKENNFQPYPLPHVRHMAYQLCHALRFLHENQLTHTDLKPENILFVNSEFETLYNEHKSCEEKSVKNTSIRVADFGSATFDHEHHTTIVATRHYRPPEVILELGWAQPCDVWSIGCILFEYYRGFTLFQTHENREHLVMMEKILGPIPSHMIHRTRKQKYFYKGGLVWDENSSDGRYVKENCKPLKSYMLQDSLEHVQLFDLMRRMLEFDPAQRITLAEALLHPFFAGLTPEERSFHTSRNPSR
Chain of EGFR (human), P00533 [L858R] (P00533 whole entry L858R, looked up): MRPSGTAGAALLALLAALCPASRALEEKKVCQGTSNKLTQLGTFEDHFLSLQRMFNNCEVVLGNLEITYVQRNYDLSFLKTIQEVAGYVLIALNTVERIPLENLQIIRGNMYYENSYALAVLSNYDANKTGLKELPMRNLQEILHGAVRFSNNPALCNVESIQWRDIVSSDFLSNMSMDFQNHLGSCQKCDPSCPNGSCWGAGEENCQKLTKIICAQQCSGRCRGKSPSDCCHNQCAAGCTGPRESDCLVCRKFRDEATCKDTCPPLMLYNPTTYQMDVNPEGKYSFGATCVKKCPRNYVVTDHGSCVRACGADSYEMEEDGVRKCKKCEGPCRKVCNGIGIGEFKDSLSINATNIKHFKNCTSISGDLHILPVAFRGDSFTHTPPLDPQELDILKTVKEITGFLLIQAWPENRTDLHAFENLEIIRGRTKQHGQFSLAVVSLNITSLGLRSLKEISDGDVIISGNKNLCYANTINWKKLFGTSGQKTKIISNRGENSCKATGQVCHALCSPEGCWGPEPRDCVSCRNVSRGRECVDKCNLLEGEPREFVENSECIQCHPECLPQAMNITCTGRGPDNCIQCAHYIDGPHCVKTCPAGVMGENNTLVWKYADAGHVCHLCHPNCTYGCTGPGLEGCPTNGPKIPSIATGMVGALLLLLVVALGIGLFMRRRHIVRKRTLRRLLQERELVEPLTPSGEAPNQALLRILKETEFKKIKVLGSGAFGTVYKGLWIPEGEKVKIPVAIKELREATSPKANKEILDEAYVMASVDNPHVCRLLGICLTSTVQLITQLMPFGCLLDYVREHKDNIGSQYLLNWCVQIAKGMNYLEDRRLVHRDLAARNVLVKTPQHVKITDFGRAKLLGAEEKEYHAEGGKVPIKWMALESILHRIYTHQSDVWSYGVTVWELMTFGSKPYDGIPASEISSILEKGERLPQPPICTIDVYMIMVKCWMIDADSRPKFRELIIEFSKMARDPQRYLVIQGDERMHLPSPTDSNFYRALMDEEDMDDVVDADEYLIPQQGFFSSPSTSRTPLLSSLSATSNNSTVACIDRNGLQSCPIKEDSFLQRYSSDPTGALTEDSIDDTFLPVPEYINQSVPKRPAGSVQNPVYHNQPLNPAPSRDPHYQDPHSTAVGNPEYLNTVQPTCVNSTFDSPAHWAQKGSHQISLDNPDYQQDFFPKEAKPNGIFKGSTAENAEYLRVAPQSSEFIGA
Chain of STK32C (human) (Q86UX6 whole entry, looked up): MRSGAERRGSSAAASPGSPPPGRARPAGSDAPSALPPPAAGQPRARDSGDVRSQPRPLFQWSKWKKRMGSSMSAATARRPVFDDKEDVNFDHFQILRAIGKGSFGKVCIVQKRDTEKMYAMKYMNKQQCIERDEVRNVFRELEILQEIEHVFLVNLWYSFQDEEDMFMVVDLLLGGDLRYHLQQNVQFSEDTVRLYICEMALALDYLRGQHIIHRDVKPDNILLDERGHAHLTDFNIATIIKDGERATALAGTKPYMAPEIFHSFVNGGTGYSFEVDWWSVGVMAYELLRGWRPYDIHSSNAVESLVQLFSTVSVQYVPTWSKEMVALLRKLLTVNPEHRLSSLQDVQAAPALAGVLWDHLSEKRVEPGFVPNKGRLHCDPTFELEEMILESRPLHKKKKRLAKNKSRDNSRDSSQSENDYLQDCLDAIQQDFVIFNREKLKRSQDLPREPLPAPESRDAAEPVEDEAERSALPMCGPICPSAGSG
Chain of CDK9 (human) (P50750 whole entry, looked up): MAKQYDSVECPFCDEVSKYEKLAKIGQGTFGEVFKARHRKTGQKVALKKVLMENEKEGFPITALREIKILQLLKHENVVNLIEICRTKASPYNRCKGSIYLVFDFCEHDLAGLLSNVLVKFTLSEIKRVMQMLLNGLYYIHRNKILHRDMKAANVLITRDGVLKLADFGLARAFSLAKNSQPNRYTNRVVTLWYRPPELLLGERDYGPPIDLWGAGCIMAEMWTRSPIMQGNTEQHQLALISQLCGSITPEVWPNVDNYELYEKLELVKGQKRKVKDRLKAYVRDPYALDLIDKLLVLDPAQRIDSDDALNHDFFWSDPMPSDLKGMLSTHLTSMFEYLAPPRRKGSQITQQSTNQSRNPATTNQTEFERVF

- inhibition of binding [1]: 0%
- inhibition of binding (AKT2 (human)): 0%
- inhibition of binding (ALK (human)): 6%
- inhibition of binding (AXL (human)): 7%
- inhibition of binding (BLK (human)): 0%
- inhibition of binding (BMPR1B (human)): 0%
- inhibition of binding (CDK14 (human)): 27%
- inhibition of binding (CDK9 (human)): 12%
- inhibition of binding (CHEK1 (human)): 1%
- inhibition of binding (CLK3 (human)): 29%
- inhibition of binding (CSNK1G1 (human)): 25%
- inhibition of binding (EGFR (human)): 10%
- inhibition of binding [2]: 16%
- inhibition of binding [3]: 1%
- inhibition of binding (EPHA5 (human)): 0%
- inhibition of binding (EPHB3 (human)): 4%
- inhibition of binding (EPHB6 (human)): 3%
- inhibition of binding (FES (human)): 0%
- inhibition of binding (GAK (human)): 6%
- inhibition of binding (IGF1R (human)): 0%
- inhibition of binding (KDR (human)): 0%
- inhibition of binding (KIT (human)): 0%
- inhibition of binding (LATS2 (human)): 19%
- inhibition of binding (MAPK4 (human)): 0%
- inhibition of binding [4]: 0%
- inhibition of binding (MUSK (human)): 0%
- inhibition of binding (NEK1 (human)): 15%
- inhibition of binding (PLK2 (human)): 0%
- inhibition of binding (PLK3 (human)): 0%
- inhibition of binding [5]: 13%
- inhibition of binding (RIOK3 (human)): 0%
- inhibition of binding (ROS1 (human)): 0%
- inhibition of binding (STK10 (human)): 4%
- inhibition of binding (STK32C (human)): 0%
- inhibition of binding (STK36 (human)): 0%
- inhibition of binding (TEK (human)): 0%
- inhibition of binding (TTK (human)): 7%
- inhibition of binding (ULK1 (human)): 0%
- inhibition of binding (ULK2 (human)): 0%
- inhibition of binding (YSK4 (human)): 21%
- inhibition of binding (ZAP70 (human)): 4%
SMILES: Nc1cc(C(F)(F)F)c(-c2cc(N3CCOCC3)nc(N3CCOCC3)n2)cn1
